Results: US10030006B2, “Coumarin based Hsp90 inhibitors with urea and ether substituents” (University of Kansas, priority 2013, dated 2018)
Like-named read-outs stand apart in the source and are kept apart here.

Key:
[1] = tested on: SKBr3 (estrogen receptor negative, Her2 over-expressing breast cancer cells); conditions: background, Marcu, et al., 2000; read-out: Hsp90 C-terminal inhibitor efficiency in SKBr3 cells; cited from earlier work
DRO81-1 = experiment: Anti-proliferation assay, DRO81-1; type: cell-based; conditions: Thyroid
Summary of the method: (§1)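 Seeding density 2000 cells/well; 72 h treatment at varying concentrations, DMSO held at 1%. Viability determined by MTS/PMS kit, with vehicle-treated cells defining full proliferation, and IC50 calculated across separate triplicate experiments.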

HMLE = experiment: Anti-proliferation assay, HMLE (normal); type: cell-based; conditions: HMLE
Summary of the method: as §1

PC-3 = experiment: Anti-proliferation assay, PC-3; type: cell-based; conditions: Homo sapiens, PC-3, Prostate Cancer
Summary of the method: as §1

[2] = tested on: SKBr3 and MCF-7 cell lines; experiment: Anti-proliferative activity against both breast cancer cell lines (results in words); type: cell-based; conditions: text b189, two breast cancer cell lines
Description: (§2) Cells were maintained in a 1:1 mixture of Advanced DMEM/F12 (Gibco) supplemented with non-essential amino acids, L-glutamine (2 mM), streptomycin (500 μg/mL), penicillin (100 units/mL), and 10% FBS. Cells were grown to confluence in a humidified atmosphere (37° C., 5% CO2), seeded (2000/well, 100 μL) in 96-well plates, and allowed to attach overnight. Compound at varying concentrations in DMSO (1% DMSO final concentration) was added, and cells were returned to the incubator for 72 h. At 72 h, the number of viable cells was determined using an MTS/PMS cell proliferation kit (Promega) per the manufacturer's instructions. Cells incubated in 1% DMSO were used at 100% proliferation, and values were adjusted accordingly. IC50 values were calculated from separate experiments performed in triplicate using GraphPad Prism.
The anti-proliferative activity of these compounds is evaluated against two breast cancer cell lines, SKBr3 (estrogen receptor negative, Her2 over-expressing breast cancer cells) and MCF-7 (estrogen receptor positive breast cancer cells).

A-549 = experiment: Anti-proliferation assay, A-549; type: cell-based; conditions: Homo sapiens, A549
Summary of the method: as §1

JMAR = experiment: Anti-proliferation assay, JMAR; type: cell-based; conditions: JMAR, HSNCC
Summary of the method: as §1

MDAMB231 = experiment: Anti-proliferation assay, MDAMB231; type: cell-based; conditions: Homo sapiens, MDA-MB-231, Tri-Neg
Summary of the method: as §1

MDA1986 = experiment: Anti-proliferation assay, MDA1986; type: cell-based; conditions: MDA1986, HSNCC
Summary of the method: as §1

BCPAP = experiment: Anti-proliferation assay, BCPAP; type: cell-based; conditions: Homo sapiens, BCPAP, Thyroid
Description: as §2

[3] = tested on: SKBr3 (estrogen receptor negative, Her2 over-expressing breast cancer cells); experiment: Anti-proliferation assay (MTS/PMS, 72 h), SKBr3; type: cell-based; conditions: Homo sapiens, SK-BR-3
HCT-116 = experiment: Anti-proliferation assay, HCT-116; type: cell-based; conditions: Homo sapiens, HCT-116
Summary of the method: as §1

MRC5 = experiment: Anti-proliferation assay, MRC5 (normal); type: cell-based; conditions: Homo sapiens
Summary of the method: as §1

[4] = tested on: MCF-7 (estrogen receptor positive breast cancer cells); experiment: Anti-proliferation assay (MTS/PMS, 72 h), MCF-7; type: cell-based; conditions: Homo sapiens, MCF7
[5] = Table 7, prenylated phenyl ureas
[6] = Table 6, substituted phenyl ureas

CO[C@@H]1[C@@H](OC(N)=O)[C@@H](O)[C@H](Oc2ccc3c(O)c(NC(=O)c4ccc(O)c(CC=C(C)C)c4)c(=O)oc3c2C)OC1(C)C [Novobiocin]
IC50 [1]: ~700 µM

CC(C)=CCc1cc(NC(=O)Nc2cc3ccc(OC4CCN(C)CC4)c(C)c3oc2=O)ccc1O [OH, 1-(4-hydroxy-3-(3-methylbut-2-en-1-yl)phenyl)-3-(8-methyl-7-((1-methylpiperidin-4-yl)oxy)-2-oxo-2H-chromen-3-yl)urea]
IC50 (DRO81-1; [5]): 1.1 µM
IC50 (HMLE; [5]): 4.8 µM
IC50 (PC-3; [5]): 0.29 µM
increase in inhibition, urea versus amide linkage [2]: 2-3 fold
IC50 (A-549; [5]): 0.25 µM
IC50 (JMAR; [5]): 0.91 µM
IC50 (MDAMB231; [5]): 0.66 µM
IC50 (MDA1986; [5]): 1.36 µM
IC50 (BCPAP; [5]): 0.99 µM
IC50 ([3]; Table 7, prenylated phenyl ureas, Breast Cancer, read-out: IC50 SKBr3): 0.39 µM
IC50 ([3]; amide versus urea linkage, read-out: IC50 for SKBr3): 0.39 µM
IC50 (HCT-116; [5]): 0.39 µM
IC50 (MRC5; MRC5, Table 7, prenylated phenyl ureas): 4.02 µM
IC50 ([4]; Table 7, prenylated phenyl ureas, Breast Cancer, read-out: IC50 MCF-3): 0.37 µM
IC50 ([4]; amide versus urea linkage, read-out: IC50 for MCF-3): 0.37 µM

Cc1c(OC2CCN(C)CC2)ccc2cc(NC(=O)Nc3ccc(OC(F)(F)F)cc3)c(=O)oc12 [p-OCF3, 1-(8-methyl-7-((1-methylpiperidin-4-yl)oxy)-2-oxo-2H-chromen-3-yl)-3-(4-(trifluoromethoxy)phenyl)urea]
IC50 (DRO81-1; [6]): 0.23 µM
IC50 (HMLE; [6]): 4.1 µM
IC50 (PC-3; [6]): 0.16 µM
IC50 (A-549; [6]): 0.31 µM
IC50 (JMAR; [6]): 3.6 µM
IC50 (MDAMB231; [6]): 0.69 µM
IC50 (MDA1986; [6]): 0.87 µM
IC50 (BCPAP; [6]): 0.87 µM
IC50 ([3]; Table 6, substituted phenyl ureas, Breast Cancer, read-out: IC50 SKBr3): 0.41 µM
IC50 (HCT-116; [6]): 0.27 µM
IC50 (MRC5; MRC5, Table 6, substituted phenyl ureas): 3.3 µM
IC50 ([4]; Table 6, substituted phenyl ureas, Breast Cancer, read-out: IC50 MCF-3): 0.4 µM
